From patent US20050226879A1, “Methods and compositions related to inhibiting nuclear envelope breakdown” (priority 2002, published 2005)
Entries after “also recorded” stand apart in the source; their conditions may differ.

Tests used:
Format in all cases: biochemical, Xenopus laevis
[1] = test system: nuclear envelope breakdown; assay: In vitro nuclear disassembly assay (nuclei assembled in Xenopus egg extract, cyclin B added); conditions: for function in the nuclear disassembly assay (inhibition of nuclear envelope breakdown): synthetic peptides 44 μM, 15 minutes prior to sperm chromatin, assessed 75 and 95 minutes post cyclin, qualitative
Excerpt: To investigate whetherNup153 participates in nuclear envelope breakdown, recombinant fragments of Nup153 were examined to determine if they exert dominant negative effects on this process in vitro. Cell-free extracts derived from Xenopus eggs were used to form synthetic nuclei around sperm chromatin. This system offers the advantage of biochemical manipulation, while being well-established to robustly recapitulate both nuclear assembly as well as nuclear disassembly in response to mitotic signals (Murray, A. W. et al., Nature 339, 280-286 (1989)). Cycloheximide was included to prevent synthesis of cyclin, thereby arresting these extracts in interphase. After nuclei were assembled, a recombinant form of stabilized cyclin B was added to initiate mitotic events. […] Detection of import cargo provided the clearest visualization of whether a nuclear envelope was intact. […] A control GST fusion protein (FIG. 7B, lanes 1 and 5) likewise had no effect (FIG. 7C, panels g and h). […] In addition, nuclear import cargo was still concentrated in nuclei under mitotic conditions, confirming both the presence and integrity of the nuclear envelope (FIG. 7C, panel o). The effect of the Nup153 zinc finger was not due to selective stability of this fragment, as equivalent levels of recombinant protein were detected in each reaction by immunoblot following the last time point (FIG. 7B, lanes 9-11).
Interphase Xenopus egg extracts were prepared using egg lysis buffer (ELB: 250 mM sucrose, 50 mM KCl, 2.5 mM MgCl2, 10 mM Hepes pH 7.4) supplemented with 1 mM dithiothreitol (DTT), 5 μg/ml cytochalasin B, aprotinin and leupeptin (10 μg/ml each), and 50 μg/ml cycloheximide (Powers, et al., In Current Protocols in Cell Biology (New York, John Wiley & Sons), pp. 11.10.11-11.11.24, (2001). Eggswere lysed by centrifugation for 15 min at 10,000 rpm. The cytoplasmic layer was collected as crude extract. For preparation of fiactionated egg extract, the crude extract was further centrifuged for 1.5 hr at 268,000 x g. The clarified supernatant was removed and further centrifuged for 1 hr at 259,000 x g to remove residual membranes. The crude extract was stored in liquid nitrogen; fractionated extract was frozen in liquid nitrogen and then stored at −80° C.
(§1) Demembranated condensed sperm chromatin was isolated from Xenopus testes as described previously (Powers, et al., In Current Protocols in Cell Biology (New York, John Wiley & Sons), pp. 11.10.11-11.11.24, (2001). For the assembly of nuclei, an ATP-generating system was added to 28 μl of crude egg extract. Sperm chromatin was added and nuclei were allowed to assemble by incubation at room temperature. After assembly for 1 hr, import substrate (NLS-HSA-RITC, prepared as in (Powers, et al., In Current Protocols in Cell Biology (New York, John Wiley & Sons), pp. 11.10.11-11.11.24, (2001)) was added to the reaction and incubated for another 30 min to assess the presence of functional pores and membrane integrity. Recombinant cyclin B with a deletion that confers stability was then added to the nuclei to initiate mitotic events (Murray, A. W., et al., Nature 339, 280-286 (1989). The role of cyclin synthesis and degradation in the control of maturation promoting factor activity Nature 339, 280-286, 1989). Samples were taken from the reaction at the indicated time points to monitor by fluorescence microscopy using DHCC (Calbiochem, San Diego, Calif.) to monitor membranes and Hoechst 33258 (Calbiochem) to monitor DNA. To examine the effects of protein fragments and antibodies on nuclear disassembly, the reagent in question was incubated with crude extract for 15 minutes at room temperature prior to the addition of sperm chromatin and energy mix. As noted, for protein fragments either 3 μg (corresponding to final concentrations of 3.3 μM, 1.7 μM, and 1.5 μM for GST, GST-N, and GST-Z respectively) or 4 μg (corresponding to final concentrations of 4.4 μM and 2 μM for GST and GST-Z respectively) was added. […]

[2] = test system: nuclear assembly and NLS-mediated import; assay: Nuclear assembly and NLS import in egg extract (interphase); conditions: ARF peptide 22 μM present
Method: as §1, with “DNA.” for “DNA. To examine the effects of protein fragments and antibodies on nuclear disassembly, the reagent in question was incubated with crude extract for 15 minutes at room temperature prior to the addition of sperm chromatin and energy mix. As noted, for protein fragments either 3 μg (corresponding to final concentrations of 3.3 μM, 1.7 μM, and 1.5 μM for GST, GST-N, and GST-Z respectively) or 4 μg (corresponding to final concentrations of 4.4 μM and 2 μM for GST and GST-Z respectively) was added.”

[3] = test system: nuclear envelope breakdown; assay: In vitro nuclear disassembly assay (nuclei assembled in Xenopus egg extract, cyclin B added); conditions: peptide added after nuclear assembly has taken place

CEQTYRVCGGGS (CEQTLYRVCGGGS)
function in the nuclear disassembly assay (inhibition of nuclear envelope breakdown) [1]: not inhibitory

(C)ESGELKPEDDVTVGPAQK (CESGELKPEDDVTVGPAQK; N-terminal cysteine) [immunogenic peptide]
protective effect of anti-β-COP antibodies on inclusion of the peptide ([1]; anti-β-COP 5 μg incubated with β-COP peptide 5 μg for 15 min before addition): blocked

GNMFANLFKGLFGKKE [ARF peptide]
nuclei remaining intact ([1]; ARF peptide 22 μM, 75 minutes after cyclin addition): 90%
nuclear assembly [2]: proceeded

C[C@H]1CCC/C=C/[C@@H]2C[C@H](O)C[C@H]2[C@H](O)/C=C/C(=O)O1 [Brefeldin A]
effect on nuclear envelope breakdown ([1]; Brefeldin A 0.6 μg/ml final, added 15 min prior to assembly): interferes with nuclear envelope breakdown; also recorded: very clear interference of nuclear envelope breakdown

EKKGFLGKFLNAF MNG (EKKGFLGKFLNAFMNG) [ARF 17-2]
effect on nuclear disassembly ([1]; ARF peptides 22 μM, 75 minutes after cyclin addition): no significant affect

CGEHVRPSCGGGS
function in the nuclear disassembly assay (inhibition of nuclear envelope breakdown) [1]: did not have activity

CNNTRSPYCGGGS
function in the nuclear disassembly assay (inhibition of nuclear envelope breakdown) [1]: not inhibitory

CTHPFTHECGGGS [ZNFPHD1]
inhibition of nuclear envelope breakdown ([1]; synthetic form as well as displayed form): capable of inhibiting nuclear envelope breakdown
function in the nuclear disassembly assay (inhibition of nuclear envelope breakdown) [1]: inhibitory
function in the nuclear disassembly assay [3]: not inhibitory
